From article PMC3090394 (2011)

Tests used:
[1] = system: oligo I, d-(GGGATATATCCC)2, AT-rich oligonucleotide (DNA, duplex) GGGATATATCCC; assay: ITC; details: Na+ 100 mM (NaCl), 10 mM HEPES, pH 7.0, 25°C; for Ka: apparent, (K1K2)^1/2 of two binding events; for binding: 1000 µM ligand titrated into 10 µM DNA, nd
[2] = system: oligo II, d-(GGGCGGCCGCCC)2, GC-rich oligonucleotide (DNA, duplex) GGGCGGCCGCCC; assay: ITC; details: Na+ 100 mM (NaCl), 10 mM HEPES, pH 7.0, 25°C; for binding: 1000 µM ligand titrated into 10 µM DNA, nd

Structure (SMILES) | Ka [1] | binding [2] | binding [1] | binding constant ([1]; control titration) | binding constant ([2]; control titration)
Cn1cc(NC(=O)c2cc(NC(=O)c3cccn3C)cn2C)cc1C(=O)NCCCn1cc(CN2CCCNCCNCCCNCC2)nn1.[Cu+2] | 1.2±0.2 ×10^5 M^−1 | no | – | – | –
Cn1cc(NC(=O)c2cc(NC(=O)c3cccn3C)cn2C)cc1C(=O)NCCCn1cc(CN2CCCNCCNCCCNCC2)nn1.[Zn+2] | 1.5±0.3 ×10^5 M^−1 | no | – | – | –
Cn1cc(NC(=O)c2cccn2C)cc1C(=O)NCCCn1cc(CN2CCCNCCNCCCNCC2)nn1 | – | no | no | – | –

Continued, values first:

Ka [1] | binding [2] | binding [1] | binding constant ([1]; control titration) | binding constant ([2]; control titration) | Structure (SMILES)
– | no | no | – | – | Cn1cccc1C(=O)NCCCn1cc(CN2CCCNCCNCCCNCC2)nn1
– | – | – | ~ 0.7×10^5 M^−1 | ~ 0.7×10^5 M^−1 | CC[n+]1c(-c2ccccc2)c2cc(N)ccc2c2ccc(N)cc21
2.7±0.3 ×10^5 M^−1 | no | – | – | – | Cn1cc(NC(=O)c2cc(NC(=O)c3cccn3C)cn2C)cc1C(=O)NCCCn1cc(CN2CCCNCCNCCCNCC2)nn1
